Source: patent US12221422B2, “Compounds and their use for the treatment of alpha1-antitrypsin deficiency” (CENTESSA PHARMACEUTICALS (UK) LIMITED, priority 2018, dated 2025)

Tests used:
human Z A1AT = human Z A1AT (Homo sapiens, UniProt P01009, E366K); assay: A1AT cell secretion assay using HEK-Z cells (ELISA); format: cell-based; parameters: expressed in transfected cells; host or cells: HEK-Z (HEK-EBNA cells containing the Z A1AT plasmid); conditions: HEK-Z cells, 10, 33, 100 and 333 nM, 48 h, cell supernatant
Method: HEK-Z cells, a human embryonic kidney cell line stably transfected with the human Z A1AT gene, were plated into 96 well plates (3.0×10^5 cells/ml with 200 μl of media/well) overnight at 37° C. in a humidified atmosphere containing 5% CO2. Following incubation cells were washed with 200 μl serum-free media three times and media was replaced with treatments in quadruplicate using serum-free media containing either vehicle, 10 μM suberanilohydroxamic acid (SAHA), N,N-dimethyl-4-((6-oxopyrimidin-1(6H)-yl)methyl)benzamide (at concentrations of 10, 33, 100 and 333 nM), N,N-(bis-methyl-d3)-4-((6-oxopyrimidin-1(6H)-yl)methyl)benzamide (at concentrations of 10, 33, 100 and 333 nM) or N-methyl-4-((6-oxopyrimidin-1(6H)-yl)methyl)benzamide (at concentrations of 10, 33, 100 and 333 nM) for 48 h in a 37° C. incubator in a final volume of 200 μl. At the end of the incubation step the supernatants were removed from the wells, centrifuged at 1000×g at 4° C. for 10 min and were assayed for human A1AT levels by ELISA (Human Serpin A1/α1-antitrypsin duo set ELISA, R& D Systems, DY1268) per manufacturer's instructions.
(§1) Briefly, a 96 well plate was coated with human A1AT capture antibody overnight at room temperature (1:180 dilution from stock, 100 μl final volume/well). The capture antibody was then removed and wells washed three times with 300 μl wash buffer (0.05% Tween 20 in PBS) and then 200 μl reagent diluent (25% Tween 20 in PBS) was incubated in each well for 1 h at room temperature. […] After which, 50 μl stop solution (2M H2SO4) was added and optical density (OD) of each well was read at 450 nm with 570 nm blank subtracted from each well using a microplate reader. A 4 parameter logistic curve was constructed using GraphPad Prism 7 and A1AT concentrations were determined in each sample by interpolation from a standard curve and multiplying by the appropriate dilution factor.
(§2) The amount of A1AT secreted from transfected HEK-EBNA cells into the media was measured by ELISA. […]

Pharmacokinetics in rats = format: in vivo; conditions: rat, whole blood, Sprague Dawley rats, iv 2 mg/kg or oral 10 mg/kg; for half-life: read-out: Half-life in blood (t1/2); for clearance: read-out: Observed clearance; for Vd: read-out: Volume of distribution (Vz)
Method: Compounds were administered to Sprague Dawley rats intravenously (2 mg/kg) or orally (10 mg/kg) by gavage. Whole blood diluted with water was prepared from these dosed animals over a time course up to 24 hours post dose to allow blood concentrations of drug to be measured by UPLC-MS/MS.

human Siiyama A1AT = target: T1, human Siiyama A1AT (Homo sapiens, UniProt P01009, S77F); assay: A1AT cell secretion assay using HEK-Siiyama cells (ELISA); format: cell-based; conditions: 10 μM, 48 h, positive control
T1 construct: expressed in transfected cells; host or cells: HEK-Siiyama (HEK-EBNA cells containing the Siiyama A1AT plasmid)
Method: (§3) HEK-Siiyama cells, a human embryonic kidney cell line stably transfected with the human Siiyama A1AT gene, were plated into 96 well plates (3.0×10^5 cells/ml with 200 μl of media/well) overnight at 37° C. in a humidified atmosphere containing 5% CO2. Following incubation cells were washed with 200 μl serum-free media three times and media was replaced with serum-free media containing either vehicle, 10 μM suberanilohydroxamic acid (SAHA) or a compound of the invention (at 1 or 10 μM) in replicates of eight for 48 h in a 37° C. incubator in a final volume of 200 μl. […]
as §1, with “volume/well).” for “volume/well). The capture antibody was then removed and wells washed three times with 300 μl wash buffer (0.05% Tween 20 in PBS) and then 200 μl reagent diluent (25% Tween 20 in PBS) was incubated in each well for 1 h at room temperature.”
The amount of human A1AT secreted from transfected HEK-EBNA cells into the media was measured by ELISA. […]

human M A1AT = target: T2, human M A1AT (Homo sapiens, UniProt P01009); assay: A1AT cell secretion assay using HEK-M cells (ELISA); format: cell-based; conditions: 10 μM, 48 h
T2 construct: expressed in transfected cells; host or cells: HEK-M (HEK-EBNA cells containing the M A1AT plasmid)
Method: as §3, with “HEK-M” for “HEK-Siiyama”, “M” for “Siiyama”, “(at” for “(at 1 or”, “six” for “eight”
as §1, with “volume/well).” for “volume/well). The capture antibody was then removed and wells washed three times with 300 μl wash buffer (0.05% Tween 20 in PBS) and then 200 μl reagent diluent (25% Tween 20 in PBS) was incubated in each well for 1 h at room temperature.”
as §2

Sequence of human Z A1AT (P01009 25-418 E366K): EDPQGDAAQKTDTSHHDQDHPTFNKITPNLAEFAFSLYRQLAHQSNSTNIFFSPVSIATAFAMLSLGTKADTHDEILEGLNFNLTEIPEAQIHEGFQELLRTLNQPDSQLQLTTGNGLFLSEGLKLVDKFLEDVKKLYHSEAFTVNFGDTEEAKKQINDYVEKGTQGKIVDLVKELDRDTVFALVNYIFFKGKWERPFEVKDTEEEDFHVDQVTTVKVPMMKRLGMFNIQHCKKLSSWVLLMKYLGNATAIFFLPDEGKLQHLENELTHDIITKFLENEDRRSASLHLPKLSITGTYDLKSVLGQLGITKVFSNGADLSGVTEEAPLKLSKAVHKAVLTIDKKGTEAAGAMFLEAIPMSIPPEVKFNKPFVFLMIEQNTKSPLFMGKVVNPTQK
T2 sequence (P01009 25-418): as the sequence (P01009 25-418 E366K) above, with K342E counted along it
T1 sequence (P01009 25-418 S77F): as the sequence (P01009 25-418 E366K) above, with S53F, K342E counted along it

Row | Compound | secretion of Z A1AT as measured by ELISA (human Z A1AT) | half-life (Pharmacokinetics in rats) [min] | clearance (Pharmacokinetics in rats) [mL/min/kg] | Vd (Pharmacokinetics in rats) [L/kg] | secretion of Siiyama A1AT as measured by ELISA (human Siiyama A1AT) | secretion of M A1AT as measured by ELISA (human M A1AT)
1 | CNC(=O)c1ccc(Cn2cnccc2=O)cc1 [N-methyl-4-((6-oxopyrimidin-1(6H)-yl)methyl)benzamide] | stimulates secretion of Z A1AT in a dose dependent manner | 63 | 10.6 | 1 |  | 
2 | O=C(CCCCCCC(=O)Nc1ccccc1)NO [SAHA, suberanilohydroxamic acid, reference compound] |  |  |  |  | stimulates an increase in Siiyama A1AT secretion | stimulates an increase in M A1AT secretion
3 | [2H]C([2H])([2H])N(C(=O)c1ccc(Cn2cnccc2=O)cc1)C([2H])([2H])[2H] [N,N-(bis-methyl-d3)-4-((6-oxopyrimidin-1(6H)-yl)methyl)benzamide] | stimulates secretion of Z A1AT in a dose dependent manner | 52 | 10.6 | 0.72 |  | 
